Drawing on ChEMBL document CHEMBL4184299, “Regioselective and efficient enzymatic synthesis of antimicrobial andrographolide derivatives” (Bioorg Med Chem Lett, 2018), this text covers MIC, Activity and hemolysis for 8 molecules.

Data set [1] has as its system Aspergillus fumigatus. Briefly: Antimicrobial activity against Aspergillus fumigatus. Format: functional.
The subject of data set [2] is Escherichia coli. Briefly: Disruption of membrane integrity in Escherichia coli assessed as protein leakage at MIC. Format: functional, organism-based.
In data set [3] the test system is Candida albicans. Briefly: Antimicrobial activity against Candida albicans. The data set is classed as functional.
Data set [4] concerns Staphylococcus aureus. Briefly: Antimicrobial activity against Staphylococcus aureus. Format: functional.
Data set [5] has as its system Micrococcus luteus. Briefly: Antimicrobial activity against Micrococcus luteus. Format: functional.
The nature of data set [6]: Hemolytic activity in human RBC at 25 ug/ml relative to control. The data set is classed as ADME, cell-based, Erythrocyte. The conditions noted are these: red blood cells (erythrocytes), read-out: Activity.
The subject of data set [7] is Pseudomonas fluorescens. Briefly: Antimicrobial activity against Pseudomonas fluorescens. The data set is classed as functional.
The test system of data set [8] is Escherichia coli. Briefly: Antimicrobial activity against Escherichia coli. The data set is classed as functional.
Data set [9] deals with Rhizopus arrhizus. Briefly: Antimicrobial activity against Rhizopus oryzae. Format: functional.
Data set [10] has as its system Escherichia coli. Briefly: Induction of membrane disruption in Escherichia coli assessed as blurred membranes at MIC after 60 mins by SEM analysis. Format: functional, organism-based.
Data set [11] concerns Escherichia coli. Briefly: Induction of membrane disruption in Escherichia coli assessed as deflated membranes at MIC after 60 mins by SEM analysis. The data set is classed as functional, organism-based.
For data set [12], the system named is Escherichia coli. Briefly: Induction of membrane disruption in Escherichia coli assessed as translucent membranes at MIC after 60 mins by SEM analysis. Format: functional, organism-based.
The test system of data set [13] is Escherichia coli. Briefly: Induction of membrane permeability in Escherichia coli at MIC by DAPI/FITC/propidium iodide staining-based fluorescent microscopic analysis. The data set is classed as functional, organism-based.

SMILES strings stand for the structures. In brackets after ≈: the same amount, converted by molar mass. Activity calls are given as the source filed them. No cut-off for these calls is given here. Where only a bound is given, the exact number is not on record here.

For `C=C1CC[C@@H]2[C@](C)(CO)[C@H](O)CC[C@@]2(C)[C@@H]1C/C=C1/C(=O)OC[C@H]1OC(C)=O`, the MIC – broadly, the lowest concentration that inhibits growth of the organism – in data set [1] is greater than 128 µg/mL; in data set [3], 32 µg/mL (≈ 81.5 µM); in [4], 16 µg/mL (≈ 40.8 µM); in data set [5], 32 µg/mL (≈ 81.5 µM); in data set [7] it was 4 µg/mL (≈ 10.2 µM); in [8], 64 µg/mL (≈ 163 µM). In data set [9], the MIC was greater than 128 µg/mL. Also, the result in [2] was Active. For the same molecule, the hemolysis at 25 ug/ml in [6] came to 4.8%.
Take `C=C1CC[C@@H]2[C@](C)(CO)[C@H](O)CC[C@@]2(C)[C@@H]1C/C=C1/C(=O)OC[C@H]1O` [ANDROGRAPHOLIDE]: the MIC in data set [1], in data set [3], in data set [4], in data set [5], in data set [7] and in data set [8] was greater than 128 µg/mL each time. In addition, the minimum inhibitory concentration (MIC) in data set [9] is greater than 128 µg/mL. In addition, the hemolysis at 25 ug/ml in data set [6] stood at 8.5%.
For the molecule `C=C1CC[C@@H]2[C@](C)(CO)[C@H](O)CC[C@@]2(C)[C@@H]1C/C=C1/C(=O)OC[C@H]1OC(=O)CC`, the minimum inhibitory concentration (MIC) in data set [1] was greater than 128 µg/mL; in data set [3] it was 16 µg/mL (≈ 39.4 µM); in data set [4], 4 µg/mL (≈ 9.84 µM); in data set [5] it was 16 µg/mL (≈ 39.4 µM); in [7], 32 µg/mL (≈ 78.7 µM); in data set [8] it was 8 µg/mL (≈ 19.7 µM). In data set [9], this molecule returned a minimal inhibitory concentration (MIC) greater than 128 µg/mL. The result in data set [10], in data set [11], in [12] and in data set [13] was Active. Further, the hemolysis at 25 ug/ml in data set [6] amounted to 6.4%.
Regarding `C=C1CC[C@@H]2[C@](C)(CO)[C@H](O)CC[C@@]2(C)[C@@H]1C/C=C1/C(=O)OC[C@H]1OC(=O)CCC`, the MIC in data set [1] is greater than 128 µg/mL; in data set [3], 64 µg/mL (≈ 152 µM); in data set [4], 8 µg/mL (≈ 19 µM); in data set [5] it was 32 µg/mL (≈ 76.1 µM); in data set [7], 16 µg/mL (≈ 38 µM); in data set [8], 4 µg/mL (≈ 9.51 µM). Besides, the MIC in [9] was greater than 128 µg/mL. For the same molecule, the outcome in data set [10], in data set [2], in data set [11], in [12] and in [13] was Active. Besides, in data set [6], the hemolysis at 25 ug/ml turned out to be 7.1%.
As to `C=C1CC[C@@H]2[C@](C)(CO)[C@H](O)CC[C@@]2(C)[C@@H]1C/C=C1/C(=O)OC[C@H]1OC(=O)CCCCCCCCC`, the minimal inhibitory concentration (MIC) in data set [1] was greater than 128 µg/mL; in data set [3], greater than 128 µg/mL; in [4], 16 µg/mL (≈ 31.7 µM); in data set [5] it was 64 µg/mL (≈ 127 µM); in [7], 64 µg/mL (≈ 127 µM); in data set [8], 32 µg/mL (≈ 63.4 µM). This molecule also came in with a minimum inhibitory concentration (MIC) in data set [9] greater than 128 µg/mL. For the same molecule, the result in data set [2] was Active. For the same molecule, the hemolysis at 25 ug/ml in data set [6] came out at 35%.
On to `C[C@@H]1[C@H](O)[C@@H](C)/C=C/C=C/C=C/C=C/C=C/C=C/C=C/[C@H](O[C@@H]2O[C@H](C)[C@@H](O)[C@H](N)[C@@H]2O)C[C@@H]2O[C@](O)(C[C@@H](O)C[C@@H](O)[C@H](O)CC[C@@H](O)C[C@@H](O)CC(=O)O[C@H]1C)C[C@H](O)[C@H]2C(=O)O` [AMPHOTERICIN B], for which the MIC in [1] came to 0.5 µg/mL (≈ 0.541 µM); in data set [9], 1 µg/mL (≈ 1.08 µM).
With `C=C1CC[C@@H]2[C@](C)(CO)[C@H](O)CC[C@@]2(C)[C@@H]1C/C=C1/C(=O)OC[C@H]1OC(=O)CCCCCCCCCCC`, the MIC was greater than 128 µg/mL in data set [1]; 32 µg/mL (≈ 60.1 µM) in [3]; 16 µg/mL (≈ 30 µM) in data set [4]; 16 µg/mL (≈ 30 µM) in data set [5]; greater than 128 µg/mL in [7]; 64 µg/mL (≈ 120 µM) in data set [8]. In addition, the minimum inhibitory concentration (MIC) in data set [9] is greater than 128 µg/mL. Further, the result in data set [2] was Active. Besides, the hemolysis at 25 ug/ml in [6] worked out at 46%.
As to `CN[C@@H]1[C@@H](O)[C@@H](O[C@@H]2[C@@H](O)[C@H](O[C@H]3O[C@H](CN)CC[C@H]3N)[C@@H](N)C[C@H]2N)OC[C@]1(C)O.O=S(=O)(O)O`, the minimal inhibitory concentration (MIC) in data set [4] and in data set [7] was 0.5 µg/mL each time.
